Entries after “also recorded” stand apart in the source; their conditions may differ.
Columns and labels:
[1] = test system: protease-activated receptor (PAR); test: Calcium release from ER in non-induced TRPC5 HEK293 FITR cells (PAR antagonism control); assay type: cell-based; settings: 30 μM norgestimate, 10 min preincubation
Experimental: When these experiments were performed, no direct physiological stimuli of TRPC4 and TRPC5 were known. Therefore, both channels had to be stimulated indirectly, e.g. by application of trypsin, a protease-activated receptor (PAR) stimulating protease. […] PAR are G protein-coupled and their activation leads to calcium store depletion from endoplasmic reticulum (ER). This so called phosphatidylinositol (PI) response is independent of the channel's presence but consequently leads to activation of store-operated channels like TRPC4 and TRPC5. Basic prerequisite to measure the effect of norgestimate on both channels under these conditions is to exclude PAR antagonism of this potential channel inhibitor. […] Kinetics and quantity of calcium store release in cells treated with 30 μM norgestimate were not changed compared to untreated cells. Therefore, norgestimate is not a PAR antagonist and TRPC4 and TRPC5 activation via PAR stimulation is suitable to measure the channels inhibition by norgestimate.

TRPC4 = target: T1, TRPC4 (Homo sapiens, UniProt Q9UBN4); test: FLIPR Ca2+ influx measurement, trypsin-stimulated TRPC4 HEK293 cells; assay type: cell-based; settings: 200 nM trypsin
T1 construct: expressed in transfected cells; host or cells: HEK293 (inducible expression)
T1 sequence (Q9UBN4 1-977): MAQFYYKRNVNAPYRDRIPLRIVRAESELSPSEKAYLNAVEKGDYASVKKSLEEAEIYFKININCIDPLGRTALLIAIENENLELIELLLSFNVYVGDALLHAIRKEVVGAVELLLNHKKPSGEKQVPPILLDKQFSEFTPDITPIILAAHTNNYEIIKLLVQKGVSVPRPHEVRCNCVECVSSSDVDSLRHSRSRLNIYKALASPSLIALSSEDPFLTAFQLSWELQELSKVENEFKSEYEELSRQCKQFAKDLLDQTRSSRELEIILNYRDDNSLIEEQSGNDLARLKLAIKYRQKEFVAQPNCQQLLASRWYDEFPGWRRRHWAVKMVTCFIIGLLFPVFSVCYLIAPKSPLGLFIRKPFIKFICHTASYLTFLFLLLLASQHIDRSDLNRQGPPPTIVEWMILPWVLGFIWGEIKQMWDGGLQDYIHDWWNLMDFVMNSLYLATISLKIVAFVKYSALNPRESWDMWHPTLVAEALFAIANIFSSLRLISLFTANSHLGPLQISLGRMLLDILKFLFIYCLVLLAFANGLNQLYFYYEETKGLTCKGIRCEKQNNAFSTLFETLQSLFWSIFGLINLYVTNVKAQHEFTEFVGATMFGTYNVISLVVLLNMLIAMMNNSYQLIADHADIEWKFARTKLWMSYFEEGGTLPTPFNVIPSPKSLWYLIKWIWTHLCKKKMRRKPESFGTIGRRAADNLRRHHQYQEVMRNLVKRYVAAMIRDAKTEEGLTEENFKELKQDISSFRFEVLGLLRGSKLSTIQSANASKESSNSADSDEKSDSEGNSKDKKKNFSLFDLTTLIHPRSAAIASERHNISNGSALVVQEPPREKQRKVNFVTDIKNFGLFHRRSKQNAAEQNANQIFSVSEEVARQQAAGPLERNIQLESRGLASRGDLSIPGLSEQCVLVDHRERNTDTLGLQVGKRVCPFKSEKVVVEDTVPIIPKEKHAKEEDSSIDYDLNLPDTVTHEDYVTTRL
Excerpt: In general, cells are provided which express a TRPC channel. Such cells can be produced using genetic methods known to a person skilled in the art. After having induced the expression of the TRPC channel, cells are usually plated into e.g. microtiter plates and grown. Usually the cells grow at the bottom of multiwell plates and are fixed. Thereafter, the cells are generally washed and loaded with a dye in a suitable loading buffer, preferably with a fluorescent dye such as fluo4am. After having removed the loading buffer, the cells are incubated with the test compound or modulator, in particular with a biochemical or chemical test compound as described above, e.g. in the form of a chemical compound library. Ca^2+ measurements can be carried out using e.g. a Fluorescence Imaging Plate Reader (FLIPR). To stimulate Ca^2+ influx through the TRPC channel a channel activator such as OAG should generally be applied.
When these experiments were performed, no direct physiological stimuli of TRPC4 and TRPC5 were known. Therefore, both channels had to be stimulated indirectly, e.g. by application of trypsin, a protease-activated receptor (PAR) stimulating protease. […] Kinetics and quantity of calcium store release in cells treated with 30 μM norgestimate were not changed compared to untreated cells. […]

## C#C[C@]1(OC(C)=O)CC[C@H]2[C@@H]3CCC4=C/C(=N/O)CC[C@@H]4[C@H]3CC[C@@]21CC [norgestimate, D-17β-acetoxy-B-ethyl-17α ethinyl-gon-4-en-3-one oxime]
[1]
  kinetics and quantity of calcium store release compared to untreated cells: not changed
TRPC4; 30 μM norgestimate
  inhibitory effect on TRPC4-mediated Ca2+ influx: only small inhibitory effects; also recorded: slightly reduced
TRPC4; FLIPR, n=2
  IC50: > 30 µM
